These are literature values, as cited in US20050085485A1, “Orally dispersible pharmaceutical piribedil composition” (priority 2002, published 2005).

The conditions of this data set: humans.

Turning to `c1cnc(N2CCN(Cc3ccc4c(c3)OCO4)CC2)nc1` [piribedil, Piribedil], the “period over which therapeutic levels are spread out” value (currently marketed prolonged-release form, 50 mg dose) was “more than 24 hours”. Besides, the “bioavailability by the oral route” value (oral route in relation to the parenteral route) is “low”.
